According to US10653648B2, “Histone acetyltransferase activators and compositions and uses thereof” (THE TRUSTEES OF COLUMBIA UNIVERSITY IN THE CITY OF NEW YORK, priority 2016, dated 2020):

Key:
[1] = cited from earlier work
[2] = tested on: Pfeiffer (EP300 wt/CREBBP mut); test: Synergy with romidepsin, Excess Over Bliss; format: cell-based; settings: in combination with romidepsin, 72 hrs
Protocol: (§1) FIGS. 22A-E show the synergy effect of JF1, a HAT activator compound, with romidepsin (a pan-class HDAC inhibitor) in B-cell lymphoma cell lines. Synergy between JF1 and romidepsin was evaluated in Pfeiffer (EP300 wt/CREBBP mut) and SUDHL-10 cells (EP300 mut/CREBBP Δ). Excess Over Bliss was calculated. Drug synergy will be confirmed by Excess over bliss (EOB). Bliss is calculated by the following formula: X=(A+B)−(A*B); where X designates the combined response for the two single compounds with effects (inhibition) A and B. The difference between Bliss and observed growth inhibition (Y) induced by combinations of drugs A and B at the same dose is the termed EOB (EOB=Y−X) 18,19. An EOB>10 connotes synergy. […] Synergy effect of JF1 and romidepsin was also assessed in a panel of B-cell lymphoma cell lines (N=5) (FIGS. 22C-22E). Cells were treated by different concentrations of JF1 and romidepsin for 48 hrs (FIG. 22C) and 72 hrs (FIG. 22D) and an Excess Over Bliss was calculated for both time points for all five cell lines. SUDHL-6 and Pfeiffer (Bold) were treated 2, 2.5, […] JF1, whereas the rest of cell lines were treated with 2, 3, 4 μM JF1. Synergy is defined by an Excess Over Bliss of 10. […]
(§2) Cells were exposed to increasing concentrations of YF2 and romidepsin in various combinations for 72 hrs and Excess Over Bliss (EOB) was calculated.

[3] = tested on: seven B-cell lymphoma cell lines; test: Synergy with romidepsin, Excess Over Bliss, cell line panel; format: cell-based; settings: in combination with romidepsin, 72 hrs
Protocol: as §1, §2

[4] = tested on: SUDHL-6 (EP300 mut/CREBBP mut); test: Histone acetylation quantified by mass spectrometry; format: cell-based; settings: combination with romidepsin (1.5 nM); YF2 6 uM, JF1 3 uM; 48 hours
Protocol: (§3) FIGS. 25A-B compare the synergy effects that HAT-activators JF1 and YF2 in combination with romidepsin have on histone acetylation in B-cell lymphoma cell lines, as quantified by mass spectrometry. In these experiments cells were seeded at 5,000 cells/mL and exposed to YF2 (6 uM), JF1 (3 uM) and romidepsin (1.5 nM) alone and in combinations for 48 hours. Following treatment, SUDHL-6 (EP300 mut/CREBBP mut, FIG. 25A) and SUDHL-10 cells (EP300 mut/CREBBP mut, FIG. 25B) were harvested for histone extraction.
For each, a synergy effect, calculated as a fold change of treatment vs. control, was observed showing an increase in histone acetylation for JF1/romidepsin and YF2/romidepsin compared to individual treatment of the cells with either JF1, YF2, or romidepsin alone (FIG. 25A).

[5] = tested on: SUDHL-10 cells (EP300 mut/CREBBP mut); test: as above; format: cell-based; settings: combination with romidepsin (1.5 nM), YF2 6 uM, 48 hours
Protocol: as §3
The synergy trend for the SUDCL-6 cell line is evident for SUDCL-10 as well (FIG. 25B). In the same manner as described above, SUDHL-10 cells were treated separately with romidepsin, JF1, YF2, JF1/romidepsin, and YF2/romidepsin and the fold change in histone acetylation was measured.

[6] = tested on: SUDHL-10; test: Histone H3 acetylation by Western Blot; format: cell-based; settings: in combination with romidepsin, 48 hours
Protocol: (§4) FIG. 26 provides a Western Blot showing the effect of JF1 and YF2 alone and in combination with romidepsin on histone acetylation in HAT-mutated cells lines. Cells were exposed to YF2 and romidepsin alone and in combinations for 48 hours in SUDHL-6 and SUDHL-10 (EP300 mut/CREBBP mut). The synergistic effect of YF2 on histone acetylation was evaluated by Western Blot with histone H3 serving as loading control.

[7] = tested on: SUDHL-6; test: Histone H3 acetylation by Western Blot; format: cell-based; settings: in combination with romidepsin, 48 hours
Protocol: as §4

## CCOc1ccccc1C(=O)Nc1ccc(Cl)c(C(F)(F)F)c1 [CTB]
[1]
  solubility: insoluble

## CCCCCCCCCCCCCCCc1cccc(OCC)c1C(=O)Nc1ccc(Cl)c(C(F)(F)F)c1 [CTPB]
[1]
  solubility: insoluble

## CCOc1cccc(OCCN(C)C)c1C(=O)Nc1ccc(Cl)c(C(F)(F)F)c1 [YF2]
[2]
  strong synergy response (EOB of at least 20): fail to show a strong response
[3]
  cell lines with strong synergy (EOB of at least 20): 6 out of 7
  cell lines with strong synergy (EOB of at least 20), percentage: 86%
[4]
  H3:K9AC increase in acetylation vs. YF2 or JF1 alone: 8 fold
  H3:K9AC increase in acetylation vs. control: 10 fold
  H3:K9AC increase in acetylation vs. romidepsin: ~2 fold
  global acetylation of histones compared with single agent effects: induced the global acetylation of histones
[5]; JF1 3 uM
  global acetylation of histones compared with single agent effects: induced the global acetylation of histones
[5]
  H3:K9AC maximum synergy effect on acetylation: about 1.6 fold
[6]
  global acetylation of Histone H3 compared with single agent effects: induced the global acetylation of Histone H3
[7]
  global acetylation of Histone H3 compared with single agent effects: induced the global acetylation of Histone H3
